US9656962B2, “Ring-contracted morphinans and the use thereof” (Purdue Pharma L.P., priority 2013, dated 2017)

Assays:
Type in all cases: biochemical
[1] = target: T1, μ-opioid receptor (Homo sapiens (Human), UniProt P35372); experiment: μ-opioid receptor [35S]GTPγS functional assay, HEK-293 or CHO cells (Table 4); conditions: for Emax: relative to DAMGO; for EC50: μ GTP
Description: (§1) μ-Opioid Receptor Functional Assay Procedures: [^35S]GTPγS functional assays were conducted using freshly thawed μ-receptor membranes prepared in-house from a cell line expressing recombinant μ opioid receptor in a HEK-293, CHO or U-2 OS cell background, or purchased from a commercial source (Perkin Elmer, Shelton, Conn.; or DiscovRx, Fremont, Calif.). Assay reactions were prepared by sequentially adding the following reagents to binding buffer (100 mM NaCl, 10 mM MgCl2, 20 mM HEPES, pH 7.4) on ice (final concentrations indicated): membrane protein (0.026 mg/mL), saponin ([…]), GDP ([…]) and [^35S]GTPγS (0.20 nM; Perkin Elmer, Shelton, Conn.). The prepared membrane solution (190 μl/well) was transferred to 96-shallow well polypropylene plates containing 10 μl of 20× concentrated stock solutions of the agonist [D-Ala^2, N-methyl-Phe^4 Gly-ol^5]-enkephalin (DAMGO) prepared in dimethyl sulfoxide (DMSO). Plates were incubated for 30 min at about 25° C. with shaking Reactions were terminated by rapid filtration onto 96-well Unifilter GF/B filter plates (Perkin Elmer, Shelton, Conn.) using a 96-well tissue harvester (Perkin Elmer, Shelton, Conn.) followed by three filtration washes with 200 μl of ice-cold wash buffer (10 mM NaH2PO4, 10 mM Na2HPO4, pH 7.4). Filter plates were subsequently dried at 50° C. for 2-3 hours. BetaScint scintillation cocktail (Perkin Elmer, Shelton, Conn.) was added (50 μl/well) and plates were counted using a Packard Top-Count for 1 min/well. Data were analyzed using the sigmoidal dose-response curve fitting functions in GraphPad PRISM v. 3.0, or an in-house function for non-linear, sigmoidal dose-response curve-fitting. [^35S]GTPγS functional assays can also be conducted using freshly thawed μ-receptor membranes prepared from a cell line expressing recombinant μ opioid receptor in a CHO-K1 cell background.
(§2) μ GTP Emax (%) is the maximal effect elicited by a compound relative to the effect elicited by DAMGO, a standard μ agonist.
In TABLE 4, activity response of certain Compounds of the Invention to the μ- and κ-opioid receptors was determined as described above for functional assays using HEK-293 or CHO cells.

[2] = target: T1, μ-opioid receptor; experiment: μ-opioid receptor [35S]GTPγS functional assay, U-2 OS cells (Table 5); conditions: for Emax: relative to DAMGO; for EC50: μ GTP
Description: as §1, §2

[3] = target: κ-opioid receptor (Homo sapiens (Human), UniProt P41145); experiment: κ-opioid receptor [35S]GTPγS functional assay, U-2 OS cells (Table 5); conditions: for Emax: relative to U69,593; for EC50: κ GTP
Description: κ-Opioid Receptor Functional Assay Procedures: Functional [^35S]GTPγS binding assays were conducted as follows. κ opioid receptor membrane solution was prepared by sequentially adding final concentrations of 0.026 μg/μl κ membrane protein (in-house), 10 μg/mL saponin, 3 μM GDP and 0.20 nM [^35S]GTPγS to binding buffer (100 mM NaCl, 10 mM MgCl2, 20 mM HEPES, pH 7.4) on ice. The prepared membrane solution (190 μl/well) was transferred to 96-shallow well polypropylene plates containing 10 μl of 20× concentrated stock solutions of agonist prepared in DMSO. Plates were incubated for 30 min at a temperature of about 25° C. with shaking. Reactions were terminated by rapid filtration onto 96-well Unifilter GF/B filter plates (Perkin Elmer, Shelton, Conn.) using a 96-well tissue harvester (Packard) and followed by three filtration washes with 200 μl ice-cold binding buffer (10 mM NaH2PO4, 10 mM Na2HPO4, pH 7.4). Filter plates were subsequently dried at 50° C. for 2-3 hours. Fifty μl/well scintillation cocktail (Perkin Elmer, Shelton, Conn.) was added and plates were counted in a Packard Top-Count for 1 min/well.
κ GTP Emax (%) is the maximal effect elicited by a compound relative to the effect elicited by U69,593.
The following TABLE 5 provides results on the activity response of certain Compounds of the Invention at the μ- and κ-opioid receptors determined as described above using U-2 OS cells.

SMILES | Emax [1] [%] | EC50 ([1]; bound given in μM) [µM] | other results
O=C([C@@H]1C[C@]23CCN(CC4CC4)[C@H](Cc4ccc(O)cc42)[C@]3(O)C1)N1CCC(N2CCCC2)CC1 [Compound 88, ((2R,3aS,4R,9bS)-12-(cyclopropylmethyl)-3a,8-dihydroxy-1,2,3,3a,4,5-hexahydro-4,9b-(epiminoethano)cyclopenta-[a]naphthalen-2-yl)(4-(pyrrolidin-1-yl)piperidin-1-yl)methanone] | 0 | > 20 | 
O=C(NCCCN1CCOCC1)[C@@H]1C[C@]23CCN(CC4CC4)[C@H](Cc4ccc(O)cc42)[C@]3(O)C1 [Compound 85, (2R,3aS,4R,9bS)-12-(cyclopropyl-methyl)-3a,8-dihydroxy-N-(3-morpholinopropyl)-1,2,3,3a,4,5-hexahydro-4,9b-(epimino-ethano)cyclopenta[a]naphthalene-2-carboxamide] | -1 | > 20 | 
O=C(NCc1cccnc1)[C@@H]1C[C@]23CCN(CC4CC4)[C@H](Cc4ccc(O)cc42)[C@]3(O)C1 [Compound 89, (2R,3aS,4R,9bS)-12-(cyclopropylmethyl)-3a,8-dihydroxy-N-(pyridin-3-ylmethyl)-1,2,3,3a,4,5-hexahydro-4,9b-(epimino-ethano)cyclopenta[a]naphthalene-2-carboxamide] | 4.5 | > 20 | 
Oc1ccc2c(c1)C13CCN(CC4CC4)[C@H](C2)[C@]1(O)C[C@H](NCc1ccccc1)C3 (stereo in doubt) [Compound 80, (2R,3aS,4R,9bS)-2-(benzylamino)-12-(cyclopropylmethyl)-2,3,4,5-tetrahydro-4,9b-(epiminoethano)-cyclopenta-[a]naphthalene-3a,8(1H)-diol] | 1 | > 20 | 
O=C(N[C@H]1CC23CCN(CC4CC4)[C@H](Cc4ccc(O)cc42)[C@]3(O)C1)c1ccccc1 (stereo in doubt) [Compound 79, N-((2S,3aS,4R,9bS)-12-(cyclopropyl-methyl)-3a,8-dihydroxy-1,2,3,3a,4,5-hexahydro-4,9b-(epiminoethano)cyclo-penta[a]naphthalen-2-yl)benzamide] | -1 | > 20 | 
O=C(Nc1ccccc1)N[C@@H]1CC23CCN(CC4CC4)[C@H](Cc4ccc(O)cc42)[C@]3(O)C1 (stereo in doubt) [Compound 83, 1-((2R,3aS,4R,9bS)-12-(cyclopropyl-methyl)-3a,8-dihydroxy-1,2,3,3a,4,5-hexahydro-4,9b-(epiminoethano)cyclo-penta[a]naphthalen-2-yl)-3-phenylurea] | 0 | > 20 | 
O=C(NCCN1CCOCC1)[C@@H]1C[C@]23CCN(CC4CC4)[C@H](Cc4ccc(O)cc42)[C@]3(O)C1 [Compound 84, (2R,3aS,4R,9bS)-12-(cyclopropyl-methyl)-3a,8-dihydroxy-N-(2-morpholinoethyl)-1,2,3,3a,4,5-hexahydro-4,9b-(epimino-ethano)cyclopenta[a]naphthalene-2-carboxamide] | 19.7 ± 1.67 |  | EC50 [1]: 0.0717 ± 0.0237 µM
O=C(NCc1ccncc1)[C@@H]1C[C@]23CCN(CC4CC4)[C@H](Cc4ccc(O)cc42)[C@]3(O)C1 [Compound 90, (2R,3aS,4R,9bS)-12-(cyclopropylmethyl)-3a,8-dihydroxy-N-(pyridin-4-ylmethyl)-1,2,3,3a,4,5-hexahydro-4,9b-(epimino-ethano)cyclopenta[a]naphthalene-2-carboxamide] | 8.14 ± 1.3 | > 20 | 
O=C([C@@H]1C[C@]23CCN(CC4CC4)[C@H](Cc4ccc(O)cc42)[C@]3(O)C1)N1CCN(c2ccccc2)CC1 [Compound 86, ((2R,3aS,4R,9bS)-12-(cyclopropylmethyl)-3a,8-dihydroxy-1,2,3,3a,4,5-hexahydro-4,9b-(epiminoethano)cyclopenta-[a]naphthalen-2-yl)(4-phenylpiperazin-1-yl)methanone] | 12.8 ± 0.63 |  | EC50 [1]: 0.0288 ± 0.0105 µM
Oc1ccc2c(c1)C13CCN(CC4CC4)[C@H](C2)[C@]1(O)C[C@H](N(Cc1ccccc1)Cc1ccccc1)C3 (stereo in doubt) [Compound 81, (2R,3aS,4R,9bS)-12-(cyclopropyl-methyl)-2-(dibenzylamino)-2,3,4,5-tetrahydro-4,9b-(epiminoethano)-cyclopenta-[a]naphthalene-3a,8(1H)-diol] | 19 ± 1.53 | > 20 | 
O=C(NCCCN1CCOCC1)[C@H]1C[C@]23CCN(CC4CC4)[C@H](Cc4ccc(O)cc42)[C@]3(O)C1 [Compound 91, (2S,3aS,4R,9bS)-12-(cyclopropylmethyl)-3a,8-dihydroxy-N-(3-morpholinopropyl)-1,2,3,3a,4,5-hexahydro-4,9b-(epimino-ethano)cyclopenta[a]naphthalene-2-carboxamide] | -1 | > 20 | 
O=C([C@@H]1C[C@]23CCN(CC4CC4)[C@H](Cc4ccc(O)cc42)[C@]3(O)C1)N1CCSCC1 [Compound 87, ((2R,3aS,4R,9bS)-12-(cyclopropylmethyl)-3a,8-dihydroxy-1,2,3,3a,4,5-hexahydro-4,9b-(epiminoethano)cyclopenta-[a]naphthalen-2-yl)(thiomorpholino)-methanone] | 1 | > 20 | 
O=C([C@H]1C[C@]23CCN(CC4CC4)[C@H](Cc4ccc(O)cc42)[C@]3(O)C1)N1CCS(=O)(=O)CC1 [Compound 94, ((2S,3aS,4R,9bS)-12-(cyclopropylmethyl)-3a,8-dihydroxy-1,2,3,3a,4,5-hexahydro-4,9b-(epiminoethano)cyclopenta-[a]naphthalen-2-yl)(1,1-dioxido-thiomorpholino)methanone] | 10.6 ± 3.41 | > 20 | 
O=C([C@@H]1C[C@]23CCN(CC4CC4)[C@H](Cc4ccc(O)cc42)[C@]3(O)C1)N1CCCCC1 [Compound 56, ((2R,3aS,4R,9bS)-12-(cyclopropylmethyl)-3a,8-dihydroxy-1,2,3,3a,4,5-hexahydro-4,9b-(epiminoethano)cyclopenta-[a]naphthalen-2-yl)(piperidin-1-yl)methanone] |  |  | Emax [2]: 16 ± 1.53%; EC50 [2]: 0.0104 ± 0.00203 µM; Emax [3]: 97.8 ± 3.67%; EC50 [3]: 0.0208 ± 0.00179 µM
NC(=O)[C@@H]1C[C@]23CCN(CC(F)(F)F)[C@H](Cc4ccc(O)cc42)[C@]3(O)C1 [Compound 75, (2R,3aS,4R,9bS)-3a,8-dihydroxy-12-(2,2,2-tritluoroethyl)-1,2,3,3a,4,5-hexahydro-4,9b-(epiminoethano)cyclo-penta[a]naphthalene-2-carboxamide] |  |  | Emax [2]: 2%; EC50 ([2]; bound given in μM): > 20 µM; Emax [3]: 69 ± 6.03%; EC50 [3]: 1.26 ± 0.0746 µM
O=C([C@H]1C[C@]23CCN(CC4CC4)[C@H](Cc4ccc(O)cc42)[C@]3(O)C1)N1CCCCC1 [Compound 57, ((2S,3aS,4R,9bS)-12-(cyclopropylmethyl)-3a,8-dihydroxy-1,2,3,3a,4,5-hexahydro-4,9b-(epiminoethano)cyclopenta-[a]naphthalen-2-yl)(piperidin-1-yl)methanone] |  |  | Emax [2]: 37.7 ± 6.69%; EC50 [2]: 0.00279 ± 0.00076 µM; Emax [3]: 90.3 ± 2.6%; EC50 [3]: 0.00588 ± 0.00079 µM
O=C(NCc1ccc(Cl)cc1Cl)[C@@H]1C[C@]23CCN(CC4CC4)[C@H](Cc4ccc(O)cc42)[C@]3(O)C1 [Compound 44, (2R,3aS,4R,9bS)-12-(cyclopropylmethyl)-N-(2,4-dichlorobenzyl)-3a,8-dihydroxy-1,2,3,3a,4,5-hexahydro-4,9b-(epimino-ethano)cyclopenta[a]naphthalene-2-carboxamide] |  |  | Emax [2]: 28.3 ± 1.86%; EC50 [2]: 0.00375 ± 0.00035 µM; Emax [3]: 94.7 ± 7.13%; EC50 [3]: 0.00026 ± 3.3e-05 µM
